For 28 molecules, inhibition, IC50 and Ki results are on record in ChEMBL document CHEMBL4837266, “Ugi Reaction Synthesis of Oxindole-Lactam Hybrids as Selective Butyrylcholinesterase Inhibitors” (ACS Med Chem Lett, 2021).

Assay [1] deals with T1, Amine oxidase [flavin-containing] B (Homo sapiens, UniProt P27338).
T1 sequence (P27338 whole entry): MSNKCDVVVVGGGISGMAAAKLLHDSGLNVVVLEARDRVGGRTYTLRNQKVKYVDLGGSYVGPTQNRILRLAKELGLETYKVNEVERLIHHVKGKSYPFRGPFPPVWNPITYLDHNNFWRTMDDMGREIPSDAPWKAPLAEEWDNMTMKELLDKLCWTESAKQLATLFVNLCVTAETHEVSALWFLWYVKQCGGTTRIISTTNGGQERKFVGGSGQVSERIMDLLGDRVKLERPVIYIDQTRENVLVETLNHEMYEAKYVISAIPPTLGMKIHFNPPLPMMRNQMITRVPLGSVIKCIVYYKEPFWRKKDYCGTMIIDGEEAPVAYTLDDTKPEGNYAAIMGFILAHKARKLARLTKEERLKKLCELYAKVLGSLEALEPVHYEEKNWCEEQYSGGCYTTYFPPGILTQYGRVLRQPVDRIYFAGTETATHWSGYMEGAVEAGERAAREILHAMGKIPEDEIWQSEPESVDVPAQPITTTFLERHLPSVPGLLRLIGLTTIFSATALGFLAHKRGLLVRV
Put plainly: Inhibition of recombinant MAO-B (unknown origin) assessed as reduction in 4-hydroxyquinoline level using kynuramine as a substrate at 1 uM incubated for 20 mins by discontinuous fluorimetric assay relative to control. The conditions noted are these: read-out: INH.

Assay [2] has as its target T2, Cholinesterase (Equus caballus, UniProt P81908). Put plainly: Inhibition of equine serum BuChE using S-butyrylthiocholine iodide as a substrate measured for 125 secs by DNTB reagent based Ellman's method. Format: cell-free. A general note: In Ellman's method for cholinesterases, released thiocholine reacts with DTNB.
For assay [3], the target named is T3, Amine oxidase [flavin-containing] A (Homo sapiens, UniProt P21397).
T3 sequence (P21397 whole entry): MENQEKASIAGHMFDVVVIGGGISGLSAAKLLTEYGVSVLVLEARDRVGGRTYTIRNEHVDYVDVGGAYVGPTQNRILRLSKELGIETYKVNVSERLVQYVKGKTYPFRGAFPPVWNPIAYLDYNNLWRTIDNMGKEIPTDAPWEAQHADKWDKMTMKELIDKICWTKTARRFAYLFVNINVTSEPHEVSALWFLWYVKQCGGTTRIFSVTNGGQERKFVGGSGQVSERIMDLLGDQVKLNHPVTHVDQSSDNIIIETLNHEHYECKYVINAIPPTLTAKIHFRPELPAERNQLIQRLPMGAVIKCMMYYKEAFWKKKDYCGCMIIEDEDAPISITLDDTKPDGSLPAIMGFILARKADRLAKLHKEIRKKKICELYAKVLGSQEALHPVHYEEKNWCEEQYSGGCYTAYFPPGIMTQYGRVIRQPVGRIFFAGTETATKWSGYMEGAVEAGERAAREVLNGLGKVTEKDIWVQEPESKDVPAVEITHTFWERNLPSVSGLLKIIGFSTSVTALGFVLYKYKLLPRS
Description: Inhibition of recombinant MAO-A (unknown origin) assessed as reduction in 4-hydroxyquinoline level using kynuramine as a substrate at 1 uM incubated for 20 mins by discontinuous fluorimetric assay relative to control.

Assay [4] has as its target T4, Acetylcholinesterase (Electrophorus electricus, UniProt O42275). Description: Inhibition of electric eel AChE using […] as a substrate measured for 125 secs by DNTB reagent based Ellman's method.
In assay [5] the target is T4, Acetylcholinesterase. Description: Inhibition of electric eel AChE using […] as a substrate by Cornish-Bowden plot analysis.
Assay [6] addresses T2, Cholinesterase. Put plainly: Mixed type inhibition of equine serum BuChE using S-butyrylthiocholine iodide as a substrate by Cornish-Bowden plot analysis. Format: cell-free.

T2 sequence (P81908 whole entry): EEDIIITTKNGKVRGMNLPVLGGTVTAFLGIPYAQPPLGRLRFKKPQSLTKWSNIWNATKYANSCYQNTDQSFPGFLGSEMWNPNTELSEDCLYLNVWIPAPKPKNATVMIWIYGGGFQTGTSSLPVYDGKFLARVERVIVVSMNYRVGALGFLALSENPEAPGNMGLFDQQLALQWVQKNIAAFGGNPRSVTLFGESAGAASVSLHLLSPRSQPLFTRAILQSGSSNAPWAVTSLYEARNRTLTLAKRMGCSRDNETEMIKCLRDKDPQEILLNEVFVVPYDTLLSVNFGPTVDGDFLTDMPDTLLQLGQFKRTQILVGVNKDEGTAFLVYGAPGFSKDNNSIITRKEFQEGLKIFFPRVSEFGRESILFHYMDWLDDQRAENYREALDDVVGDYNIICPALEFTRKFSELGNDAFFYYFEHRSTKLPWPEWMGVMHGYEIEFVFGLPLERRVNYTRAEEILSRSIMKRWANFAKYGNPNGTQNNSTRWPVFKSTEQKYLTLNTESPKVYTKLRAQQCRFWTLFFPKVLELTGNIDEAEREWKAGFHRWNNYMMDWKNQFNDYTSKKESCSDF
T4 sequence (O42275 whole entry): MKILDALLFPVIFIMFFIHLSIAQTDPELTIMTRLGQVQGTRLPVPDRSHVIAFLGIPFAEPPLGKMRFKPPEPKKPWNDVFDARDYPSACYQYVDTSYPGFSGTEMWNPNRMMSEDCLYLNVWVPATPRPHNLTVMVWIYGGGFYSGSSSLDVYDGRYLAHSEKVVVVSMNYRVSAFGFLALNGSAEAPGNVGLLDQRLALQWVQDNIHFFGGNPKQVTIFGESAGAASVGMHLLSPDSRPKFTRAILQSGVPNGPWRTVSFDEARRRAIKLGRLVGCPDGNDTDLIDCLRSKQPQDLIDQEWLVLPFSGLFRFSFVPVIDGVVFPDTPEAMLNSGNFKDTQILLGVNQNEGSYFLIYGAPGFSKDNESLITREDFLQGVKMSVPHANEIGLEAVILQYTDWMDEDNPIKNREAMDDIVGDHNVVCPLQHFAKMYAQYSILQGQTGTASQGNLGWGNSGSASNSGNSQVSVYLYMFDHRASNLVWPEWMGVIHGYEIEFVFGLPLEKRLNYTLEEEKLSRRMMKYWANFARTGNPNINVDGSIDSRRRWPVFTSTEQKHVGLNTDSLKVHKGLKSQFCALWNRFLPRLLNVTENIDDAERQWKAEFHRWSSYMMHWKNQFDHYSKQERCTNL

Usually IC50 stands for the midpoint of a concentration-inhibition curve. As to `C#CCN1C(=O)C(C(=O)NCc2ccccc2)(N2CCCC2=O)c2ccccc21` (stereo not drawn), the inhibition at 1 µM in assay [1] was 6.1%; in assay [3], 13.2%. This molecule gave an IC50 against Cholinesterase [2] of over 100 µM. On Cholinesterase [2], `CC(C)(C)NC(=O)C1(N2CCC2=O)C(=O)Nc2c(C(F)(F)F)cccc21` (stereo not drawn) yielded an IC50 of over 100 µM. Still for that read-out and setting: the result for `O=C1CCCN1C1(C(=O)NC2CCCCC2)C(=O)Nc2ccccc21` (stereo not drawn) reads 44 µM. With `C#CCN1C(=O)C(C(=O)NC(C)(C)C)(N2CCC2=O)c2ccccc21` (stereo not drawn), the inhibition at 1 µM in assay [1] stood at 7.4%; in assay [3] it was 5.9%. Molecule `CC(C)(C)NC(=O)C1(N2CCC2=O)C(=O)N(Cc2ccccc2)c2ccccc21` (stereo not drawn) gave an IC50 on Cholinesterase [2] of 51 µM. Still for that read-out and setting: under `CC(C)(C)NC(=O)C1(N2CCC2=O)C(=O)Nc2ccccc21` (stereo not drawn) stands over 100 µM; under `CC(C)(C)NC(=O)C1(N2CCCC2=O)C(=O)Nc2ccc(I)cc21` (stereo not drawn), 68 µM; under `CN1C(=O)C(C(=O)NC(C)(C)CC(C)(C)C)(N2CCCC2=O)c2ccccc21` (stereo not drawn), 18 µM. The molecule `Cc1cc(C)c2c(c1)C(C(=O)NC(C)(C)C)(N1CCC1=O)C(=O)N2` (stereo not drawn) registered an IC50 against Cholinesterase [2] of 57 µM. The same measure, in the same setting: under `CC(C)(C)NC(=O)C1(N2CCCC2=O)C(=O)N(Cc2ccccc2)c2ccccc21` (stereo not drawn) stands 32 µM. Take `CC(C)(C)NC(=O)C1(N2CCCC2=O)C(=O)Nc2ccc([N+](=O)[O-])cc21` (stereo not drawn): the IC50 on Acetylcholinesterase [4] was determined as 45 µM; against Cholinesterase [2], 94 µM. At Cholinesterase [2], `CC(C)(C)NC(=O)C1(N2CCCC2=O)C(=O)Nc2ccc(Br)cc21` (stereo not drawn) showed an IC50 of over 100 µM. By Ki is commonly meant the dissociation constant of the complex between target and ligand, obtained from inhibition or displacement. On to `CC(C)(C)CC(C)(C)NC(=O)C1(N2CCCC2=O)C(=O)Nc2ccccc21` (stereo not drawn), for which the IC50 was over 100 µM at Acetylcholinesterase [4] and 8.4 µM on Cholinesterase [2]. The Ki on Acetylcholinesterase [5] worked out at 7.4 µM; at Cholinesterase [6] it was 15 µM. With `CC(C)(C)NC(=O)C1(N2CCC2=O)C(=O)N(c2ccccc2)c2ccccc21` (stereo not drawn), at Cholinesterase [2], inhibition was half-maximal at 22 µM (IC50). This counts as double-digit micromolar. Same read-out and setting: under `CN1C(=O)C(C(=O)NC(C)(C)C)(N2CCCC2=O)c2ccccc21` (stereo not drawn) stands over 100 µM; under `O=C1CCCN1C1(C(=O)NCc2ccccc2)C(=O)Nc2ccccc21` (stereo not drawn), 71 µM. The molecule `CC(C)(C)NC(=O)C1(N2CCC2=O)C(=O)Nc2ccc([N+](=O)[O-])cc21` (stereo not drawn) had an IC50 against Cholinesterase [2] of over 100 µM.

On Cholinesterase [2], `CC(C)(C)CC(C)(C)NC(=O)C1(N2CCC2=O)C(=O)Nc2ccccc21` (stereo not drawn) showed an IC50 of 42 µM. On to `CC(C)(C)CC(C)(C)NC(=O)C1(N2CCC2=O)C(=O)N(Cc2ccccc2)c2ccccc21` (stereo not drawn), for which the values for the IC50 against Acetylcholinesterase [4] and at Cholinesterase [2] were over 100 µM and 1.8 µM, respectively. The values for the Ki at Acetylcholinesterase [5] and at Cholinesterase [6] were 1.8 µM and 4.8 µM, respectively. In the case of `O=C1CCN1C1(C(=O)NCc2ccccc2)C(=O)Nc2ccccc21` (stereo not drawn), the IC50 at Acetylcholinesterase [4] and against Cholinesterase [2] was over 100 µM throughout. `CC(C)(C)NC(=O)C1(N2CCC2=O)C(=O)Nc2ccc(I)cc21` (stereo not drawn): 80 µM corresponded to half-maximal inhibition against Cholinesterase [2] (IC50). Take `CC(C)(C)NC(=O)C1(N2CCCC2=O)C(=O)N(c2ccccc2)c2ccccc21` (stereo not drawn): the Ki was 6.1 µM on Acetylcholinesterase [5] and 18 µM at Cholinesterase [6]. In addition, the IC50 against Cholinesterase [2] worked out at 6.2 µM. Molecule `Cc1cc(C)c2c(c1)C(C(=O)NC(C)(C)C)(N1CCCC1=O)C(=O)N2` (stereo not drawn) came in with a concentration for half-maximal inhibition (IC50) against Cholinesterase [2] of over 100 µM.

With `CC(C)(C)NC(=O)C1(N2CCCC2=O)C(=O)Nc2ccccc21` (stereo not drawn), on Cholinesterase [2], the midpoint of inhibition, the IC50, lay at 54 µM. In the case of `C#CCN1C(=O)C(C(=O)NCc2ccccc2)(N2CCC2=O)c2ccccc21` (stereo not drawn), the inhibition at 1 µM in assay [1] was 7.6%; in assay [3] it was 8.9%. Also, at Cholinesterase [2], the IC50 is over 100 µM. At Cholinesterase [2], `CC(C)(C)NC(=O)C1(N2CCC2=O)C(=O)Nc2ccc(Br)cc21` (stereo not drawn) returned an IC50 of over 100 µM. `C#CCN(C)CCCOc1ccc(Cl)cc1Cl` [CLORGILINE]: in assay [3], the inhibition at 1 µM stood at 100%. The same measure, in the same setting: the result for `C[C@H](NCc1ccc(OCc2cccc(F)c2)cc1)C(N)=O` [SAFINAMIDE] reads -1.6%.
